# Source: the NIST ThermoML archive (doi:10.1016/j.tca.2014.06.031)
# Numbers after ± are expanded uncertainties.
# Columns and labels:
# [1] = xn = mol fraction of the nth substance listed; details: 101 kPa, Liquid; for speed of sound: Frequency=3 MHz, Sing-around technique in a fixed-path interferometer; for mass density: Vibrating tube method
# [2] = refractive index (Na D-line) (dimensionless); xn = mol fraction of the nth substance listed; details: 101 kPa, Liquid, Standard Abbe refractometry
# [3] = refractive index (Na D-line) (dimensionless); details: 101.33 kPa, Liquid, Standard Abbe refractometry
# [4] = Liquid; for speed of sound: Sing-around technique in a fixed-path interferometer; for mass density: Vibrating tube method
# [5] = 298.15 K, 101 kPa, Frequency=3 MHz
smiles,measurement,setting,value
CCCC(=O)O [butanoic acid] + CCCCC(=O)O,speed of sound,"[1]; 293.15 K, x1 = 1",1195.5 ± 1.5 m/s
same,mass density,"[1]; 293.15 K, x1 = 1",957.78 ± 0.23 kg/m3
same,speed of sound,"[1]; 298.15 K, x1 = 1",1176.9 ± 1.5 m/s
same,mass density,"[1]; 298.15 K, x1 = 1",952.81 ± 0.23 kg/m3
same,speed of sound,"[1]; 303.15 K, x1 = 1",1158.2 ± 1.5 m/s
same,mass density,"[1]; 303.15 K, x1 = 1",947.94 ± 0.24 kg/m3
same,speed of sound,"[1]; 308.15 K, x1 = 1",1139.7 ± 1.5 m/s
same,mass density,"[1]; 308.15 K, x1 = 1",942.92 ± 0.24 kg/m3
same,speed of sound,"[1]; 313.15 K, x1 = 1",1121.3 ± 1.5 m/s
same,mass density,"[1]; 313.15 K, x1 = 1",938.05 ± 0.24 kg/m3
same,refractive index,"[2]; 293.15 K, x1 = 1",1.39826 ± 0.00037
same,refractive index,"[2]; 298.15 K, x1 = 1",1.3963 ± 0.00037
same,refractive index,"[2]; 303.15 K, x1 = 1",1.39421 ± 0.00037
same,refractive index,"[2]; 308.15 K, x1 = 1",1.39217 ± 0.00037
same,refractive index,"[2]; 313.15 K, x1 = 1",1.3901 ± 0.00037
CCO [ethanol],refractive index,[3]; 298.15 K,1.35945 ± 0.00051
same,speed of sound,[4]; [5],1142.8 ± 2.3 m/s
same,mass density,"[4]; 298.15 K, 101 kPa",785.24 ± 0.61 kg/m3
CCOC(=O)OCC [diethyl carbonate],refractive index,[3]; 298.15 K,1.38249 ± 0.00051
same,speed of sound,[4]; [5],1176.6 ± 2.3 m/s
same,mass density,"[4]; 298.15 K, 101 kPa",969.32 ± 0.8 kg/m3
CCCCCCC(=O)O [heptanoic acid],refractive index,[3]; 293.15 K,1.42336 ± 0.00037
same,refractive index,[3]; 298.15 K,1.42138 ± 0.00037
same,refractive index,[3]; 303.15 K,1.41935 ± 0.00037
same,refractive index,[3]; 308.15 K,1.41733 ± 0.00037
same,refractive index,[3]; 313.15 K,1.4153 ± 0.00037
same,speed of sound,"[4]; 293.15 K, 101.33 kPa",1295.4 ± 1.5 m/s
same,mass density,"[4]; 293.15 K, 101.33 kPa",917.65 ± 0.24 kg/m3
same,speed of sound,"[4]; 298.15 K, 101.33 kPa",1277.7 ± 1.5 m/s
same,mass density,"[4]; 298.15 K, 101.33 kPa",913.47 ± 0.24 kg/m3
same,speed of sound,"[4]; 303.15 K, 101.33 kPa",1259.9 ± 1.5 m/s
same,mass density,"[4]; 303.15 K, 101.33 kPa",909.29 ± 0.24 kg/m3
same,speed of sound,"[4]; 308.15 K, 101.33 kPa",1242.2 ± 1.5 m/s
same,mass density,"[4]; 308.15 K, 101.33 kPa",905.11 ± 0.24 kg/m3
same,speed of sound,"[4]; 313.15 K, 101.33 kPa",1224.7 ± 1.5 m/s
same,mass density,"[4]; 313.15 K, 101.33 kPa",900.94 ± 0.24 kg/m3
CCO [ethanol] + CCOC(=O)OCC,speed of sound,"[1]; 298.15 K, x2 = 0",1142.8 ± 2.3 m/s
same,mass density,"[1]; 298.15 K, x2 = 0",785.24 ± 0.61 kg/m3
same,refractive index,"[2]; 298.15 K, x2 = 0",1.35945 ± 0.00051
CCCC(=O)O [butanoic acid],refractive index,[3]; 293.15 K,1.39826 ± 0.00037
same,refractive index,[3]; 298.15 K,1.3963 ± 0.00037
same,refractive index,[3]; 303.15 K,1.39421 ± 0.00037
same,refractive index,[3]; 308.15 K,1.39217 ± 0.00037
same,refractive index,[3]; 313.15 K,1.3901 ± 0.00037
same,speed of sound,"[4]; 293.15 K, 101.33 kPa",1195.5 ± 1.5 m/s
same,mass density,"[4]; 293.15 K, 101.33 kPa",957.78 ± 0.24 kg/m3
same,speed of sound,"[4]; 298.15 K, 101.33 kPa",1176.9 ± 1.5 m/s
same,mass density,"[4]; 298.15 K, 101.33 kPa",952.81 ± 0.24 kg/m3
same,speed of sound,"[4]; 303.15 K, 101.33 kPa",1158.2 ± 1.5 m/s
same,mass density,"[4]; 303.15 K, 101.33 kPa",947.94 ± 0.24 kg/m3
same,speed of sound,"[4]; 308.15 K, 101.33 kPa",1139.7 ± 1.5 m/s
same,mass density,"[4]; 308.15 K, 101.33 kPa",942.92 ± 0.24 kg/m3
same,speed of sound,"[4]; 313.15 K, 101.33 kPa",1121.3 ± 1.5 m/s
same,mass density,"[4]; 313.15 K, 101.33 kPa",938.05 ± 0.24 kg/m3
CCCCC(=O)O [pentanoic acid] + CCCCCCC(=O)O,speed of sound,"[1]; 293.15 K, x2 = 0",1234 ± 2.3 m/s
same,mass density,"[1]; 293.15 K, x2 = 0",939.41 ± 0.77 kg/m3
same,speed of sound,"[1]; 298.15 K, x2 = 0",1216 ± 2.3 m/s
same,mass density,"[1]; 298.15 K, x2 = 0",934.85 ± 0.76 kg/m3
same,speed of sound,"[1]; 303.15 K, x2 = 0",1197.9 ± 2.3 m/s
same,mass density,"[1]; 303.15 K, x2 = 0",930.29 ± 0.76 kg/m3
same,speed of sound,"[1]; 308.15 K, x2 = 0",1179.9 ± 2.3 m/s
same,mass density,"[1]; 308.15 K, x2 = 0",925.73 ± 0.75 kg/m3
same,speed of sound,"[1]; 313.15 K, x2 = 0",1162.1 ± 2.3 m/s
same,mass density,"[1]; 313.15 K, x2 = 0",921.16 ± 0.75 kg/m3
same,refractive index,"[2]; 293.15 K, x2 = 0",1.4084 ± 0.00051
same,refractive index,"[2]; 298.15 K, x2 = 0",1.40641 ± 0.00051
same,refractive index,"[2]; 303.15 K, x2 = 0",1.40438 ± 0.00051
same,refractive index,"[2]; 308.15 K, x2 = 0",1.40234 ± 0.00051
same,refractive index,"[2]; 313.15 K, x2 = 0",1.4003 ± 0.00051
CCOC(=O)OCC [diethyl carbonate] + CCO,speed of sound,"[1]; 298.15 K, x1 = 0.0415",1145.2 ± 2.3 m/s
same,speed of sound,"[1]; 298.15 K, x1 = 0.0943",1147.3 ± 2.3 m/s
same,speed of sound,"[1]; 298.15 K, x1 = 0.1932",1150.9 ± 2.3 m/s
same,speed of sound,"[1]; 298.15 K, x1 = 0.2929",1154 ± 2.3 m/s
same,speed of sound,"[1]; 298.15 K, x1 = 0.3938",1156.9 ± 2.3 m/s
same,speed of sound,"[1]; 298.15 K, x1 = 0.4965",1159.8 ± 2.3 m/s
same,speed of sound,"[1]; 298.15 K, x1 = 0.597",1162.8 ± 2.3 m/s
same,speed of sound,"[1]; 298.15 K, x1 = 0.6924",1166 ± 2.3 m/s
same,speed of sound,"[1]; 298.15 K, x1 = 0.7911",1169.7 ± 2.3 m/s
same,speed of sound,"[1]; 298.15 K, x1 = 0.899",1173.7 ± 2.3 m/s
same,speed of sound,"[1]; 298.15 K, x1 = 0.9413",1175 ± 2.3 m/s
same,speed of sound,"[1]; 298.15 K, x1 = 1",1176.6 ± 2.3 m/s
same,mass density,"[1]; 298.15 K, x1 = 0.0415",800.3 ± 0.71 kg/m3
same,mass density,"[1]; 298.15 K, x1 = 0.0943",817.71 ± 0.71 kg/m3
same,mass density,"[1]; 298.15 K, x1 = 0.1932",845.85 ± 0.72 kg/m3
same,mass density,"[1]; 298.15 K, x1 = 0.2929",869.58 ± 0.73 kg/m3
same,mass density,"[1]; 298.15 K, x1 = 0.3938",889.96 ± 0.74 kg/m3
same,mass density,"[1]; 298.15 K, x1 = 0.4965",907.82 ± 0.75 kg/m3
same,mass density,"[1]; 298.15 K, x1 = 0.597",922.99 ± 0.76 kg/m3
same,mass density,"[1]; 298.15 K, x1 = 0.6924",935.73 ± 0.77 kg/m3
same,mass density,"[1]; 298.15 K, x1 = 0.7911",947.58 ± 0.79 kg/m3
same,mass density,"[1]; 298.15 K, x1 = 0.899",959.27 ± 0.8 kg/m3
same,mass density,"[1]; 298.15 K, x1 = 0.9413",963.58 ± 0.8 kg/m3
same,mass density,"[1]; 298.15 K, x1 = 1",969.32 ± 0.8 kg/m3
same,refractive index,"[2]; 298.15 K, x1 = 0.0415",1.36136 ± 0.00051
same,refractive index,"[2]; 298.15 K, x1 = 0.0943",1.36347 ± 0.00051
same,refractive index,"[2]; 298.15 K, x1 = 0.1932",1.36698 ± 0.00051
same,refractive index,"[2]; 298.15 K, x1 = 0.2929",1.36981 ± 0.00051
same,refractive index,"[2]; 298.15 K, x1 = 0.3938",1.37241 ± 0.00051
same,refractive index,"[2]; 298.15 K, x1 = 0.4965",1.3746 ± 0.00051
same,refractive index,"[2]; 298.15 K, x1 = 0.597",1.37647 ± 0.00051
same,refractive index,"[2]; 298.15 K, x1 = 0.6924",1.37805 ± 0.00051
same,refractive index,"[2]; 298.15 K, x1 = 0.7911",1.37957 ± 0.00051
same,refractive index,"[2]; 298.15 K, x1 = 0.899",1.38109 ± 0.00051
same,refractive index,"[2]; 298.15 K, x1 = 0.9413",1.38167 ± 0.00051
same,refractive index,"[2]; 298.15 K, x1 = 1",1.38249 ± 0.00051
CCCCC(=O)O [pentanoic acid],refractive index,[3]; 293.15 K,1.4084 ± 0.00051
same,refractive index,[3]; 298.15 K,1.40641 ± 0.00051
same,refractive index,[3]; 303.15 K,1.40438 ± 0.00051
same,refractive index,[3]; 308.15 K,1.40234 ± 0.00051
same,refractive index,[3]; 313.15 K,1.4003 ± 0.00051
same,speed of sound,"[4]; 293.15 K, 101.33 kPa",1234 ± 2.3 m/s
same,mass density,"[4]; 293.15 K, 101.33 kPa",939.41 ± 0.77 kg/m3
same,speed of sound,"[4]; 298.15 K, 101.33 kPa",1216 ± 2.3 m/s
same,mass density,"[4]; 298.15 K, 101.33 kPa",934.85 ± 0.76 kg/m3
same,speed of sound,"[4]; 303.15 K, 101.33 kPa",1197.9 ± 2.3 m/s
same,mass density,"[4]; 303.15 K, 101.33 kPa",930.29 ± 0.76 kg/m3
same,speed of sound,"[4]; 308.15 K, 101.33 kPa",1179.9 ± 2.3 m/s
same,mass density,"[4]; 308.15 K, 101.33 kPa",925.73 ± 0.75 kg/m3
same,speed of sound,"[4]; 313.15 K, 101.33 kPa",1162.1 ± 2.3 m/s
same,mass density,"[4]; 313.15 K, 101.33 kPa",921.16 ± 0.75 kg/m3
